18 compounds from ChEMBL document CHEMBL4321885, “Biomimetic Macrocyclic Inhibitors of Human Cathepsin D: Structure-Activity Relationship and Binding Mode Analysis” (J Med Chem, 2020) can be followed below.

pIC50: −log10 of the molar value. Calls of active or inactive are those of the source. The calls are words filed in the database; no cut-off is given here. Non-standard residues stand in square brackets, D forms with d. Residues, ends and D or L forms follow the SMILES beside them. *: point of attachment. Sta = CC(C)C[C@H](N)[C@@H](O)CC(=O)O; Isovaleryl = CC(C)CC(=O)*

Assay [1] deals with Protease (Human immunodeficiency virus 1) (UniProt Q9YQ12). In words: Inhibition of HIV1 protease at 5 uM using Abz-Tyr-Ile-Nle-Nph-Gln-Arg as substrate preincubated for 10 mins followed by substrate addition and measured by FRET assay.
Sequence of Protease (Human immunodeficiency virus 1) (Q9YQ12 as listed by the source): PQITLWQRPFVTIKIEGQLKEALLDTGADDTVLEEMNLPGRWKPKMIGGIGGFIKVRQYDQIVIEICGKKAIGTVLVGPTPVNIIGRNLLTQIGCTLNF
In assay [2] the target is T1, Renin (Homo sapiens) (UniProt P00797).
T1 sequence (whole entry): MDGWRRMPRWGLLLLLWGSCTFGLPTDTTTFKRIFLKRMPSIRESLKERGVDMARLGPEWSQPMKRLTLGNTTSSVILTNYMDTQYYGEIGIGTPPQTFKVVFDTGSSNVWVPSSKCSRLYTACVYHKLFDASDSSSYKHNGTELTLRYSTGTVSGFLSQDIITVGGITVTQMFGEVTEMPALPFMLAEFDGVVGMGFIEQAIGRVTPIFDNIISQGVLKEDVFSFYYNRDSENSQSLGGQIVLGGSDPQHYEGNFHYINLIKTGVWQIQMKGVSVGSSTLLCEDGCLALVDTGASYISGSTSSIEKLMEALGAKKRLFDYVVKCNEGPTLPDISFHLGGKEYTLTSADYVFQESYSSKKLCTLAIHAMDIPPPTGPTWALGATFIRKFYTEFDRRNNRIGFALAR
Nature of the assay: Inhibition of recombinant human N-terminal FLAG-tagged renin (67 to 406 residues) expressed in HEK cells at 50 nM using Arg-Glu(EDANS)-Ile-His-Pro-Phe-His-Leu-Val-Ile-His-Thr-Lys(Dabcyl)-Arg as substrate preincubated for 10 mins followed by substrate addition and measured by FRET assay.

The target of assay [3] is Beta-secretase 1 (Homo sapiens) (UniProt P56817). In words: Inhibition of recombinant human C-terminal 10His-tagged BACE1 expressed in mouse NS0 cells at 50 nM using Mca-Ser-Glu-Val-Asn-Leu-Asp-Ala-Glu-Phe-Arg-Lys(Dnp)-Arg-Arg as substrate preincubated for 10 mins followed by substrate addition and measured by FRET assay.
Sequence of Beta-secretase 1 (Homo sapiens) (P56817 whole entry): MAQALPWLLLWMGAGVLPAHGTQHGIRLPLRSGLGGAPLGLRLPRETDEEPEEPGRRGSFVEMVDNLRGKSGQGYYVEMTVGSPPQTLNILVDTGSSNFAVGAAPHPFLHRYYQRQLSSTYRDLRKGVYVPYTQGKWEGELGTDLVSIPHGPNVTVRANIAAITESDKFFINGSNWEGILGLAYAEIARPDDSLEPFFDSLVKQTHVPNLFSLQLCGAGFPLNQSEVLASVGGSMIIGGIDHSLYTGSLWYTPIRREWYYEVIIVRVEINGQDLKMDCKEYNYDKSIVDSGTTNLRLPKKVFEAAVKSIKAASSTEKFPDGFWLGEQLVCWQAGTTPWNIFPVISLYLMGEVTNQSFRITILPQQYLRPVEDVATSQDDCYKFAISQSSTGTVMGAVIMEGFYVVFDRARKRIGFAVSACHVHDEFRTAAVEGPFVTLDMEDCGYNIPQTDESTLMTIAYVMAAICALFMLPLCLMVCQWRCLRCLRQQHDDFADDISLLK
In assay [4] the target is Saccharopepsin (Saccharomyces cerevisiae S288c) (UniProt P07267). Nature of the assay: Inhibition of Baker's yeast proteinase A at 50 nM using Abz-Lys-Pro-Ala-Glu-Phe-Nph-Ala-Leu as substrate preincubated for 10 mins followed by substrate addition and measured by FRET assay.
Sequence of Saccharopepsin (Saccharomyces cerevisiae S288c) (P07267 whole entry): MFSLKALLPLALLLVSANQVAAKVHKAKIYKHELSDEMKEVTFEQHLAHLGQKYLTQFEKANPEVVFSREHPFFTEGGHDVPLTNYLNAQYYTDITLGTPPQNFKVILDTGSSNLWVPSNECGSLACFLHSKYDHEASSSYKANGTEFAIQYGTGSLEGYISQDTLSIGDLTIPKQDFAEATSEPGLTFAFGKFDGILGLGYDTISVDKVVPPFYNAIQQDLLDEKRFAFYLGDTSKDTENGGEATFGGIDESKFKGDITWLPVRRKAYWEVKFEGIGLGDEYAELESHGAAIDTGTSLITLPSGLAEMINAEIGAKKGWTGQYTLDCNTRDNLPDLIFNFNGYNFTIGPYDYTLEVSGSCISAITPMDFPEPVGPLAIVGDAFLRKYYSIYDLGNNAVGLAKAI
The target of assay [5] is Protease (Human immunodeficiency virus 1) (UniProt Q9YQ12). In words: Inhibition of HIV1 protease at 50 nM using Abz-Tyr-Ile-Nle-Nph-Gln-Arg as substrate preincubated for 10 mins followed by substrate addition and measured by FRET assay.
Assay [6] concerns the target Beta-secretase 1 (Homo sapiens) (UniProt P56817). In words: Inhibition of recombinant human C-terminal 10His-tagged BACE1 expressed in mouse NS0 cells at 5 uM using Mca-Ser-Glu-Val-Asn-Leu-Asp-Ala-Glu-Phe-Arg-Lys(Dnp)-Arg-Arg as substrate preincubated for 10 mins followed by substrate addition and measured by FRET assay.
The next assay has as its system Ixodes ricinus. Nature of the assay: Inhibition of Ixodes ricinus CatD expressed in Escherichia coli BL21(DE3) at 50 nM using Abz-Lys-Pro-Ala-Glu-Phe-Nph-Ala-Leu as substrate preincubated for 10 mins followed by substrate addition and measured by FRET assay.
The next assay addresses Cathepsin D (Homo sapiens, UniProt P07339). In words: Inhibition of human placenta CatD using Abz-Lys-Pro-Ala-Glu-Phe-Nph-Ala-Leu as substrate preincubated for 10 mins followed by substrate addition and measured by FRET assay.
For assay [7], the target named is T1, Renin (Homo sapiens). In words: Inhibition of recombinant human N-terminal FLAG-tagged renin (67 to 406 residues) expressed in HEK cells at 5 uM using Arg-Glu(EDANS)-Ile-His-Pro-Phe-His-Leu-Val-Ile-His-Thr-Lys(Dabcyl)-Arg as substrate preincubated for 10 mins followed by substrate addition and measured by FRET assay.

Sequence of Cathepsin D (P07339 65-162 limits assumed): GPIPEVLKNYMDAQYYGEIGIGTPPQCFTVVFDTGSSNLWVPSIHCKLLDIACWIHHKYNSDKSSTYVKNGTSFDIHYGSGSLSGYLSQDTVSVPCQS
Sequence of Cathepsin D (P07339 169-412 limits assumed): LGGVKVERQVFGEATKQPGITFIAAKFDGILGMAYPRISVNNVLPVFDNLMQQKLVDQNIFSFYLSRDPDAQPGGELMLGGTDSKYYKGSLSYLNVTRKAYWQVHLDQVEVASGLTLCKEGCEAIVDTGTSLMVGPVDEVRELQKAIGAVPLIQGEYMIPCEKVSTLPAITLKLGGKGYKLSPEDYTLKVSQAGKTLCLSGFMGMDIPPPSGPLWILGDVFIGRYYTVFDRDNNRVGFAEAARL

On to `CC(C)[C@@H]1NC(=O)C[C@H](O)[C@H](Cc2ccc3ccccc3c2)NC(=O)CCCCCCCCCCCNC1=O`, for which the inhibition result (in assay [1]; in assay [4]; in assay [6]; with Ixodes ricinus; on Renin (Homo sapiens) [7]) was “Active” in each case. Further, the inhibition result (on Renin (Homo sapiens) [2]; in assay [3]; in assay [5]) was “inactive” each time. Besides, at Cathepsin D, the pIC50 – broadly, the IC50 on a negative log10 scale, so that one unit is a factor of ten – is 9.22.

In the case of `CC(C)[C@@H]1NC(=O)C[C@H](O)[C@H](CSCc2ccccc2)NC(=O)CCCCCCCCCCCNC1=O`, the inhibition entry (in assay [1]; in assay [4]; in [6]; with Ixodes ricinus; at Renin (Homo sapiens) [7]) was “Active” throughout. In addition, the inhibition result (on Renin (Homo sapiens) [2]; in assay [3]; in [5]) was “inactive” in each case. At Cathepsin D, this compound showed a pIC50 of 7.70.

For the compound `CC(C)[C@@H]1NC(=O)C[C@H](O)[C@H](Cc2ccccc2)NC(=O)CCCCCCCCCCCCCCNC1=O`, the inhibition entry (in [1]; in assay [4]; in assay [6]; with Ixodes ricinus; at Renin (Homo sapiens) [7]) was “Active” in each case. Further, the inhibition result (on Renin (Homo sapiens) [2]; in assay [3]; in assay [5]) was “inactive” in each case. For the same compound, on Cathepsin D, the pIC50 is 7.49.

For `CC(C)[C@@H]1NC(=O)C[C@H](O)[C@H](Cc2ccccc2)NC(=O)CCOCCOCCOCCNC1=O`, the inhibition result (in [1]; in assay [4]; in [6]; in the assay on Ixodes ricinus; on Renin (Homo sapiens) [7]) was “Active” throughout. In addition, the inhibition entry (on Renin (Homo sapiens) [2]; in assay [3]; in assay [5]) was “inactive” throughout. The pIC50 against Cathepsin D is 6.07.

`CC(C)C[C@@H]1NC(=O)CCCCCCCCCCCNC(=O)[C@H](C)NC(=O)C[C@@H]1O`: the inhibition result (in assay [1]; in assay [4]; in assay [6]; in the assay with Ixodes ricinus; on Renin (Homo sapiens) [7]) was “Active” each time. For the same compound, the inhibition entry (at Renin (Homo sapiens) [2]; in assay [3]; in assay [5]) was “inactive” each time. The compound also showed a pIC50 against Cathepsin D of 6.51.

For `O=C1C[C@H](O)[C@H](Cc2ccccc2)NC(=O)CCCCCCCCCCCNC(=O)[C@H](C2CCCCC2)N1`, the inhibition result (in assay [1]; in assay [4]; in assay [6]; in the assay with Ixodes ricinus; on Renin (Homo sapiens) [7]) was “Active” in each case. Besides, the inhibition result (on Renin (Homo sapiens) [2]; in assay [3]; in assay [5]) was “inactive” in each case. Further, the pIC50 against Cathepsin D was 8.09.

Turning to `C[C@@H](OCc1ccccc1)[C@@H]1NC(=O)C[C@H](O)[C@H](Cc2ccccc2)NC(=O)CCCCCCCCCCCNC1=O`, the inhibition result (in assay [1]; in assay [4]; in assay [6]; in the assay on Ixodes ricinus; on Renin (Homo sapiens) [7]) was “Active” each time. The inhibition entry (on Renin (Homo sapiens) [2]; in assay [3]; in assay [5]) was “inactive” in each case. Further, the pIC50 on Cathepsin D is 6.25.

As to `CC(C)[C@@H]1NC(=O)C[C@H](O)[C@H](Cc2cscn2)NC(=O)CCCCCCCCCCCNC1=O`, the inhibition entry (in assay [1]; in [4]; in assay [6]; in the assay with Ixodes ricinus; on Renin (Homo sapiens) [7]) was “Active” throughout. The inhibition result (on Renin (Homo sapiens) [2]; in [3]; in assay [5]) was “inactive” throughout. The compound further gave a pIC50 against Cathepsin D of 6.22.

As for `CC(C)[C@@H]1NC(=O)C[C@H](O)[C@H](Cc2ccc(O)cc2)NC(=O)CCCCCCCCCCCNC1=O`, the inhibition result (in assay [1]; in assay [4]; in assay [6]; in the assay with Ixodes ricinus; on Renin (Homo sapiens) [7]) was “Active” throughout. The inhibition entry (at Renin (Homo sapiens) [2]; in assay [3]; in assay [5]) was “inactive” in each case. The same compound gave a pIC50 at Cathepsin D of 7.41.

`C[C@@H]1NC(=O)C[C@H](O)[C@H](Cc2ccccc2)NC(=O)CCCCCCCCCCCNC1=O`: the inhibition result (in assay [1]; in [4]; in assay [6]; in the assay on Ixodes ricinus; on Renin (Homo sapiens) [7]) was “Active” throughout. The inhibition result (at Renin (Homo sapiens) [2]; in assay [3]; in [5]) was “inactive” each time. In addition, the pIC50 against Cathepsin D was 7.17.

Turning to `CC(C)[C@@H]1NC(=O)C[C@H](O)[C@H](Cc2ccccc2)NC(=O)CCCCCCCCCCNC1=O`, the inhibition result (in assay [1]; in assay [4]; in assay [6]; in the assay with Ixodes ricinus; on Renin (Homo sapiens) [7]) was “Active” in each case. The inhibition entry (at Renin (Homo sapiens) [2]; in assay [3]; in assay [5]) was “inactive” each time. Moreover, at Cathepsin D, the pIC50 is 7.40.

Consider `CC(C)[C@@H]1NC(=O)C[C@H](O)[C@H](CS)NC(=O)CCCCCCCCCCCNC1=O`, for which the inhibition entry (in [1]; in [4]; in assay [6]; with Ixodes ricinus; at Renin (Homo sapiens) [7]) was “Active” in each case. Besides, the inhibition result (on Renin (Homo sapiens) [2]; in assay [3]; in assay [5]) was “inactive” in each case. Besides, the pIC50 against Cathepsin D is 6.47.

`CC(C)CC(=O)N[C@@H](CC(C)C)[C@@H](O)CC(=O)N[C@@H](C)C(=O)O`: the negative logarithm of the IC50 (pIC50) against Cathepsin D was under 3.70.

For the compound `CC(C)CC(=O)N[C@@H](CC(C)C)[C@@H](O)CC(=O)N[C@@H](C)C(=O)N[C@@H](CC(C)C)[C@@H](O)CC(=O)O`, the pIC50 against Cathepsin D was 5.60.

As for `C[C@@H](O)[C@@H]1NC(=O)C[C@H](O)[C@H](Cc2ccccc2)NC(=O)CCCCCCCCCCCNC1=O`, the inhibition result (in assay [1]; in assay [4]; in assay [6]; in the assay with Ixodes ricinus; on Renin (Homo sapiens) [7]) was “Active” each time. Also, the inhibition entry (at Renin (Homo sapiens) [2]; in assay [3]; in assay [5]) was “inactive” in each case. The same compound gave a pIC50 at Cathepsin D of 6.30.

With `CC(C)[C@@H]1NC(=O)C[C@H](O)[C@H](Cc2ccccc2)NC(=O)CCCCCCCCCCCCNC1=O`, the inhibition result (in [1]; in [4]; in assay [6]; in the assay on Ixodes ricinus; on Renin (Homo sapiens) [7]) was “Active” each time. Also, the inhibition entry (at Renin (Homo sapiens) [2]; in [3]; in assay [5]) was “inactive” in each case. At Cathepsin D, this compound showed a pIC50 of 8.46.

In turn, `CC(C)CC(=O)N[C@H](C(=O)N[C@H](C(=O)N[C@@H](CC(C)C)[C@@H](O)CC(=O)O)C(C)C)C(C)C` (Isovaleryl-Val-Val-[Sta]-OH) had a pIC50 against Cathepsin D of 6.30.

At Cathepsin D, `CC(C)CC(=O)N[C@H](C(=O)N[C@H](C(=O)N[C@@H](CC(C)C)[C@@H](O)CC(=O)N[C@@H](C)C(=O)O)C(C)C)C(C)C` (Isovaleryl-VV[Sta]A-OH) gave a pIC50 of 7.40.
